Patent publication US20150094348A1, “GPR17-MODULATING COMPOUNDS, DIAGNOSTIC AND THERAPEUTIC USES THEREOF” (Centro Cardiologico Monzino S.p.A., priority 2010, published 2015)
Marks after values point to notes of the source that are not given here.

Legend:
[1] = molecular target: T1, human receptor GPR17 (Homo sapiens, UniProt Q13304); assay: [35S]GTPγS binding assay on membranes of 1321N1 cells transfected with human GPR17; format: biochemical; conditions: for EC50 / Emax: [35S]GTPγS binding; for EC50: 1321N1 cells expressing human GPR17, mean±SEM of three experiments; for Emax: LTC4 at 100 nM, in % (unit assumed); for % Emax vs standard: efficacy relative to LTC4 set to 100%; for effect of antagonist on concentration-response curve of the compound: in presence of cangrelor or montelukast
T1 construct: expressed in transfected cells; host or cells: human 1321N1 astrocytoma cells, calcium phosphate transfection with pcDNA3.1; plasma membranes used
T1 sequence (Q13304 29-367 limits assumed): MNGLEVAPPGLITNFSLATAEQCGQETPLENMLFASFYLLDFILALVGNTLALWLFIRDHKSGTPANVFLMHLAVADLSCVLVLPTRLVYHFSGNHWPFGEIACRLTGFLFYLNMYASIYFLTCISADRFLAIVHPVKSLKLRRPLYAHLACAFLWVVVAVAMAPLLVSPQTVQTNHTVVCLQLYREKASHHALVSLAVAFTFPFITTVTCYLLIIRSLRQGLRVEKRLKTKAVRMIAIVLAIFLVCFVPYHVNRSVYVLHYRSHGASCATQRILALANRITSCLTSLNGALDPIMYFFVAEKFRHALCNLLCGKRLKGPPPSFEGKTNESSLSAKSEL
Procedure: A—The compounds according to the invention were evaluated for their functional activity on GPR17 using a well-known assay for GPCRs, the [^35S]GTPγS binding assay, which is based on the ability of the agonist to increase radioactive GTP binding when a GPCR is activated. The antagonist activity is evaluated according to the ability to counteract the increased [^35S]GTPγS binding induced by the LTC4 reference agonist.
The activation of GPCRs by agonists stimulates the dissociation of GDP from G-protein, thus increasing GTP binding in its place. This increase in GTP binding to G-protein can be quantified in vitro with [^35S]GTPγS. The effect of GPCR activation on [^35S]GTPγS binding is catalytic, because it increases the [^35S]GTPγS binding rate rather than [^35S]GTPγS binding equilibrium. […] For some GPCRs, the binding stimulated by the agonist (ie. the difference between GTP binding in the presence and absence of the agonist) increases with time, peaks and then falls to zero; optimal increases in [^35S]GTPγS binding induced by the agonist are often obtained before equilibrium is attained, rather than at equilibrium. […] The control and transfected cells were homogenised in 5 mM Tris-HCl and 2 mM EDTA (pH 7.4) and centrifuged at 48000 g for 15 min at 4° C. The resulting pellets (plasma membranes) were washed in 50 mM Tris-HCl and 10 mM MgCl2 (pH 7.4) and stored at −80° C. until use.
The Graph-Pad Prism program was used for the analysis and graphic presentation of the [^35S]GTPγS binding data. All the data are shown as the mean±SEM of three different experiments. The data were tested for statistical significance with the paired Student's t test or analysis of variance (one-way ANOVA), as appropriate. When significant differences were observed, the Newman-Keuls multiple comparison test (one-way ANOVA) was performed. A value of P<0.05 was considered significant.

[2] = [35S]GTPγS binding assay on 1321N1 cells transfected only with control vector pcDNA3.1; format: biochemical, human; conditions: cells transfected only with pcDNA3.1
Procedure: Human 1321N1 cells were cultured as described [Fumagalli et al., 2004, Biochem Pharmacol 68:113]. For the [^35S]GTPγS assay, 10^6 1321N1 cells were seeded on 75 cm^2 flasks and transfected by the calcium phosphate precipitation method, with the vector pcDNA3.1 containing the construct encoding for human receptor GPR17, and with the empty vector pcDNA3.1 as control [Fumagalli et al., 2004, Biochem Pharmacol 68:113].
The activation of GPCRs by agonists stimulates the dissociation of GDP from G-protein, thus increasing GTP binding in its place. This increase in GTP binding to G-protein can be quantified in vitro with [^35S]GTPγS. The effect of GPCR activation on [^35S]GTPγS binding is catalytic, because it increases the [^35S]GTPγS binding rate rather than [^35S]GTPγS binding equilibrium. Consequently, the [^35S]GTPγS binding assay is intrinsically a functional concentration-response curve, not an equilibrium binding assay [Lazareno, 1999, Methods Mol Biol 1106:231; Milligan, 2003, Trends Pharmacol Ski 24:87]. For some GPCRs, the binding stimulated by the agonist (ie. the difference between GTP binding in the presence and absence of the agonist) increases with time, peaks and then falls to zero; optimal increases in [^35S]GTPγS binding induced by the agonist are often obtained before equilibrium is attained, rather than at equilibrium. […]

[3] = tested on: oligodendrocyte precursor cells (OPCs); assay: Pro-myelinating activity assay on oligodendrocyte precursor cell (OPC) cultures (MBP-positive cells); format: cell-based, Sprague-Dawley rat; conditions: 48 h after start of treatment
Procedure: The OPCs were cultured on plates containing 24 mm slides coated with poly-D,L-ornithine in Neurobasal medium with 2% of B27 supplement (Invitrogen), L-glutamine (2 mM) and enriched with growth factors PDGF and betaFGF (10 ng/ml) to promote proliferation. In order to promote differentiation, after 24 h, the culture medium was replaced with Neurobasal with 2% B27 without growth factors and with the addition of triiodothyronine T3 (400 ng/ml).
The ability of the agonists to promote myelination was evaluated by measuring the increase in the number of cells positive for the MBP marker present in the culture compared with the control treated with the carrier alone. In particular, 48 h after treatment with the agonists, the cells were fixed in 4% paraformaldehyde in 0.1 M PBS and stained by immunocytochemistry using an antibody specific for MBP. […] The slides were mounted with Dako Fluorescent Mounting Medium (Dako, Milan) on cover slips and analysed with an inverted optical microscope (AXIOVERT 200 M, Zeiss, Milan). The images were processed and acquired with Axiovision 4.4 software, in the rhodamine fluorescence channel for MBP. The effects of the treatments on OPC myelination were quantified by manual count using ImageJ software (Wayne Rasband, Research Services Branch of the National Institute of Mental Health of Bethesda, USA).

Row | EC50 [1] [nM] | Emax [1] | % Emax vs standard [1] | SMILES | other results
1 | 0.109 ± 0.028 | 145.6 ± 5.7 | 100.6% | COc1ccc(-n2c(SC(C)C(=O)Nc3ccccc3)nnc2-c2ccccc2OC)cc1 (centres unmarked) [(I), 2-[[5-(2-methoxyphenyl)-4-(4-methoxyphenyl)-4H-1,2,4-triazol-3-yl]thio]-N-phenylpropanamide] | effect of antagonist on concentration-response curve of the compound [1]: shifted to the right (increase in EC50), but no effect on efficacy was observed; effect of antagonist on concentration-response curve of the compound ([1]; listed as I): reduction in the efficacy
2 | 3.67 ± 0.51 | 206.8 ± 8.3 | 142.8*** % | COCCn1nnnc1C(c1cc2cc(OC)ccc2[nH]c1=O)N(CCc1ccccc1)Cc1ccccc1 (centres unmarked) [(II), 6-methoxy-3-[[1-(2-methoxyethyl)-1H-tetrazol-5-yl][(2-phenylethyl)(phenylmethyl)-amino]methyl]-2(1H)-quinolinone] | 
3 | 2.27 ± 0.07 | 173.5 ± 0.5 | 119.8*** % | COc1ccc(N(C(=O)Cn2nnc3ccccc32)C(C(=O)NCC2CCCO2)c2ccc(F)cc2)cc1 (centres unmarked) [(IV), N-[1-(4-fluorophenyl)-2-oxo-2-[[(tetrahydro-2-furanyl)methyl]amino]ethyl]-N-(4-methoxyphenyl)-1H-benzotriazol-1-acetamide] | 
4 | 0.268 ± 0.009 | 161.5 ± 2.4 | 111.5** % | O=C(Nc1ccc(C(F)(F)F)cc1)N1CCC(c2nc(O)c3nnn(Cc4ccccc4Cl)c3n2)CC1 [(V), 4-[3-[(2-chlorophenyl)methyl]-6,7-dihydro-7-oxo-3H-1,2,3-triazole[4,5-d]pyrimidin-5-yl]-N-[4-(trifluoromethyl)phenyl]-1-piperidinecarboxamide] | 
5 |  | 144.8 ± 0.4 | 100% | CCCCC/C=C\C\C=C/C=C/C=C/[C@@H](SC[C@H](NC(=O)CC[C@H](N)C(=O)O)C(=O)NCC(=O)O)[C@@H](O)CCCC(=O)O [LTC4, reference compound] | response in [35S]GTPγS binding in control-vector cells [2]: unable to induce a response
6 |  |  |  | CCCCC/C=C\C\C=C/C=C/C=C/[C@@H](SC[C@H](N)C(=O)O)[C@@H](O)CCCC(=O)O [LTE4] | pro-myelinating activity, in words (mature cells expressing MBP) [3]: increase the number of mature cells in culture expressing MBP
7 |  |  |  | O=c1ccn([C@@H]2O[C@H](COP(=O)(O)OP(=O)(O)O)[C@@H](O)[C@H]2O)c(=O)[nH]1 [UDP] | pro-myelinating activity, in words (mature cells expressing MBP) [3]: increase the number of mature cells in culture expressing MBP
8 |  |  |  | CSCCNc1nc(SCCC(F)(F)F)nc2c1ncn2[C@@H]1O[C@H](COP(=O)(O)OP(=O)(O)C(Cl)(Cl)P(=O)(O)O)[C@@H](O)[C@H]1O [cangrelor, reference compound] | type of antagonism on concentration-response curves of compound of formula (I) ([1]; curves of compound (I) in presence of different concentrations of the antagonist (FIG. 1 C, D)): competitive antagonist
